Each compound was assayed against T1, human CXCR3 (N-delta 4) (Homo sapiens, UniProt P49682) (assay: Human CXCR3 (N-delta 4) Scintillation Proximity Assay (SPA), [125I] IP-10 binding to Ba/F3-hCXCR3 membranes). Details: IC50 rating, Table 1; read-out: IC50.
T1 construct: CD8 leader (N); Flag; expressed in transfected cells; membranes prepared
T1 sequence (P49682 5-368 limits assumed): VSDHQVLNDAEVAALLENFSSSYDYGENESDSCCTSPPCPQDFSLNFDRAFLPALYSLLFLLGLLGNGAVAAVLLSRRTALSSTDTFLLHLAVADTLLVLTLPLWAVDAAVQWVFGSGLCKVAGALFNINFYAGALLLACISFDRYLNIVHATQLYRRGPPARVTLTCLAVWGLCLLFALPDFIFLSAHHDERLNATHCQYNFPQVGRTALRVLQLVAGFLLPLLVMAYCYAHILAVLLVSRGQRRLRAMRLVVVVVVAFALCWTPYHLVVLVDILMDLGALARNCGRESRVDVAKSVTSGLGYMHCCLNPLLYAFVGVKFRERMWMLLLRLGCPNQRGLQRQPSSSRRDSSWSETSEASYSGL

| Compound | IC50 |
| --- | --- |
| CC[C@H]1CN(c2nc(N)c(C(=O)N3CCN(C(=O)OC(C)(C)C)CC3)nc2Cl)CCN1C1CCN(Cc2ccc(Cl)cc2)CC1 [compound 312] | > 100 nM |
| CC[C@H]1CN(c2nc(N)c(C(=O)NCCO)nc2Cl)CCN1C1CCN([C@@H](C(=O)O)c2ccc(Cl)cc2)CC1 [compound 177] | 25 to 100 nM |
| CC[C@H]1CN(c2nc(N)c(C(N)=O)nc2Cl)CCN1C1CCN(Cc2ccc(Cl)cc2C(=O)OC)CC1 [compound 31] | 25 to 100 nM |
| CC[C@H]1CN(c2ncc(C(=O)NC3CC3)nc2C)CCN1C1CCN(C(=O)c2ccc(C(F)(F)F)cc2)CC1 [compound 483] | < 25 nM |
| CCNC(=O)c1cnc(N2C[C@H](CC)N(C3CCN(C(=O)c4ccc(Cl)cc4)CC3)C[C@H]2C)c(Cl)n1 [compound 474] | < 25 nM |
| CC[C@H]1CN(c2nc(N)c(C(N)=O)nc2Cl)CCN1C1CCN([C@@H](C(=O)OC)c2ccc(Cl)cc2)CC1 [compound 56] | > 100 nM |
| CC[C@H]1CN(c2ncc(C(=O)NC)nc2C)CCN1C1CCN(C(=O)c2ccc(F)c(Cl)c2)CC1 [compound 456] | < 25 nM |
| CC[C@H]1CN(c2ncc(C(N)=O)nc2Cl)CCN1C1CCN(C(=O)c2ccc(Cl)c(OCCS(C)(=O)=O)c2)CC1 [compound 409] | < 25 nM |
| CC[C@H]1CN(c2nc(N)c(C(=O)NCCNS(C)(=O)=O)nc2Cl)CCN1C1CCN([C@@H](CO)c2ccc(Cl)cc2)CC1 [compound 244] | < 25 nM |
| CNC(=O)c1cnc(N2C[C@H](C)N(C3CCN(Cc4ccc(Cl)cc4F)CC3)C[C@H]2C)cn1 [compound 287] | > 100 nM |
| CC[C@H]1CN(c2nc(N)c(C(=O)NCCO)nc2Cl)CCN1C1CCN([C@H](C(=O)O)c2ccc(Cl)cc2)CC1 [compound 203] | > 100 nM |
| CC[C@H]1CN(c2nc(N)c(C(=O)NCCCO)nc2Cl)CCN1C1CCN(Cc2ccc(Cl)cc2)CC1 [compound 227] | 25 to 100 nM |
| CC[C@H]1CN(c2nc(N)c(C(=O)NCCNc3ncccn3)nc2Cl)CCN1C1CCN(Cc2ccc(Cl)cc2)CC1 [compound 229] | < 25 nM |
| CC[C@H]1CN(c2ncc(C(=O)NC3CC3)nc2C)CCN1C1CCN([C@@H](CO)c2ccc(F)c(F)c2)CC1 [compound 471] | < 25 nM |
| CC[C@H]1CN(c2nc(N)c(C(N)=O)nc2Cl)CCN1C1CCN(Cc2ccc(Cl)cc2CC(N)=O)CC1 [compound 17] | < 25 nM |
| CC[C@H]1CN(c2nc(N)c(C(N)=O)nc2Cl)CCN1C1CCN(Cc2ccc(Cl)cc2C2NC(=O)N(C)C2=O)CC1 (some centres unmarked) [compound 380] | > 100 nM |
| CC[C@H]1CN(c2nc(N)c(C(=O)NCCO)nc2Cl)CCN1C1CCN(Cc2ccc(Cl)cc2C#N)CC1 [compound 136] | < 25 nM |
| CC[C@H]1CN(c2ncc(C(N)=O)nc2C(F)(F)F)[C@H](C)CN1C1CCN(C(=O)c2ccc(Cl)cc2)CC1 [compound 478] | < 25 nM |
| CC[C@H]1CN(c2nc(N)c(C(=O)NCCO)nc2Cl)CCN1C1CCN(Cc2ccc(Cl)cc2F)CC1 [compound 113] | < 25 nM |
| CC[C@H]1CN(c2ncc(C(N)=O)nc2C)CCN1C1CCN(C(=O)c2ccc(Cl)cc2N)CC1 [compound 442] | < 25 nM |
| CC[C@H]1CN(c2nc(N)c(C(=O)NCCO)nc2Cl)CCN1C1CCN(Cc2ccc(Cl)cc2-c2nnn[nH]2)CC1 [compound 161] | < 25 nM |

| Compound | IC50 |
| --- | --- |
| C[C@H]1CN(c2nc(N)c(C(N)=O)nc2Cl)CCN1C1CCN(Cc2ccc(Cl)cc2)CC1 [compound 29] | 25 to 100 nM |
| COC(=O)c1cnc(N2C[C@H](C)N(C3CCN(Cc4ccc(Cl)cc4F)CC3)C[C@H]2C)cn1 [compound 288] | > 100 nM |
| CC[C@H]1CN(c2nc(N)c(C(N)=O)nc2Cl)CCN1C1CCN(Cc2ccc(C(=O)OC)cc2)CC1 [compound 15] | < 25 nM |
| CNC(=O)c1nc(Cl)c(N2C[C@H](C)N(C3CCN(Cc4ccc(Cl)cc4F)CC3)C[C@H]2C)nc1N [compound 68] | < 25 nM |
| CC[C@H]1CN(c2nc(N)c(C(=O)NC[C@@H](C)O)nc2Cl)CCN1C1CCN(Cc2ccc(Cl)cc2[C@@H](O)C(N)=O)CC1 [compound 222] | < 25 nM |
| CC[C@H]1CN(c2nc(N)c(C(=O)NCCO)nc2Cl)CCN1C1CCN(C(=O)c2ccc(F)c(F)c2F)CC1 [compound 351] | 25 to 100 nM |
| CC[C@H]1CN(c2nc(N)c(C(=O)NCCO)nc2Cl)CCN1C1CCN([C@H](C(=O)OC)c2ccc(C#N)cc2)CC1 [compound 200] | > 100 nM |
| CC[C@H]1CN(c2nc(N)c(C(=O)NCCNC(=O)OC(C)(C)C)nc2Cl)CCN1C1CCN(Cc2ccc(Cl)cc2C#N)CC1 [compound 235] | > 100 nM |
| CC[C@H]1CN(c2nc(N)c(C(=O)OC)nc2Cl)CCN1C1CCN(Cc2ccc(Cl)cc2)CC1 [compound 67] | < 25 nM |
| CCC(O)CNC(=O)c1nc(Cl)c(N2CCN(C3CCN(C(=O)c4ccc(Cl)cc4)CC3)[C@@H](CC)C2)nc1N (some centres unmarked) [compound 337] | < 25 nM |
| CC[C@H]1CN(c2nc(NC(=O)C(F)(F)F)c(C(N)=O)nc2Cl)CCN1C1CCN(Cc2ccc(Cl)cc2F)CC1 [compound 292] | < 25 nM |
| CC[C@H]1CN(c2nc(N)c(C(=O)NCCO)nc2Cl)CCN1C1CCN(Cc2ccc(Cl)cc2OCCNC(=O)NC2CCCCC2)CC1 [compound 131] | < 25 nM |
| CC[C@H]1CN(c2nc(N)c(C(N)=O)nc2Cl)CCN1C1CCN(Cc2ccc(OC(F)(F)F)cc2)CC1 [compound 9] | < 25 nM |
| CC[C@H]1CN(c2ncc(C(N)=O)nc2C(F)(F)F)CCN1C1CCN(C(=O)c2ccc(Cl)cc2)CC1 [compound 416] | < 25 nM |
| CC[C@H]1CN(c2nc(N)c(C(N)=O)nc2Cl)CCN1C1CCN(Cc2ccc(Cl)c(OCCS(C)(=O)=O)c2)CC1 [compound 411] | < 25 nM |
| CC[C@H]1CN(c2nc(N)c(C(=O)NC(=N)NC)nc2Cl)CCN1C1CCN(C(=O)c2ccc(F)c(F)c2)CC1 [compound 398] | < 25 nM |
| CC[C@H]1CN(c2nc(N)c(C(=O)NCCNS(C)(=O)=O)nc2Cl)CCN1C1CCN(Cc2ccc(Cl)cc2)CC1 [compound 245] | < 25 nM |
| CC[C@H]1CN(c2nc(N)c(C(=O)NCCO)nc2Cl)CCN1C1CCN(Cc2ccc(Cl)cc2OCCO)CC1 [compound 124] | < 25 nM |
| CC[C@H]1CN(c2nc(N)c(C(N)=O)nc2Cl)CCN1C1CCN(Cc2ccc(Cl)cc2CC(=O)N2CC[C@@H](O)C2)CC1 [compound 51] | > 100 nM |
| CC[C@H]1CN(c2nc(NCc3ccc(F)c(F)c3)c(C(=O)NCCNS(N)(=O)=O)nc2Cl)CCN1C1CCN(Cc2ccc(F)c(F)c2)CC1 [compound 256] | < 25 nM |
| CC[C@H]1CN(c2nc(N)c(C(=O)NCCO)nc2Cl)CCN1C1CCN(C(=O)c2ccc(Cl)cc2OCCNC(=O)OC(C)(C)C)CC1 [compound 315] | < 25 nM |

| Compound | IC50 |
| --- | --- |
| CC[C@H]1CN(c2nc(N)c(C(=O)NCCCNS(C)(=O)=O)nc2Cl)CCN1C1CCN(Cc2ccc(C#N)cc2)CC1 [compound 226] | > 100 nM |
| CC[C@H]1CN(c2nc(N)c(C(N)=O)nc2Cl)CCN1C1CCN(C(CO)c2ccc(Cl)cc2)CC1 (some centres unmarked) [compound 3] | < 25 nM |
| CC[C@H]1CN(c2ncc(C(N)=O)nc2C)CCN1C1CCN(C(=O)c2ccc(Cl)cc2)CC1 [compound 388] | < 25 nM |
| CC[C@H]1CN(c2nc(N)c(C(=O)NCCO)nc2Cl)CCN1C1CCN(Cc2ccc(Cl)cc2C2=NCCN2)CC1 [compound 167] | < 25 nM |
| CC[C@H]1CN(c2nc(N)c(C(N)=O)nc2Cl)CCN1C1CCN(Cc2ccc(Cl)cc2C2COC(=O)O2)CC1 (some centres unmarked) [compound 375] | 25 to 100 nM |
| CC[C@H]1CN(c2nc(N)c(C(=O)NCCNS(N)(=O)=O)nc2Cl)CCN1C1CCN(Cc2ccc(Cl)cc2C(=N)NC)CC1 [compound 260] | < 25 nM |
| CC[C@H]1CN(c2nc(N)c(C(=O)NC)nc2Cl)CCN1C1CCN(C(=O)c2ccc(Cl)cc2O)CC1 [compound 343] | 25 to 100 nM |
| CC[C@H]1CN(c2nc(N)c(C(N)=O)nc2Cl)CCN1C1CCN(Cc2ccc(Cl)cc2CC(=O)N(C)C)CC1 [compound 42] | > 100 nM |
| CC[C@H]1CN(c2nc(N)c(C(=O)NCCS(C)(=O)=O)nc2Cl)CCN1C1CCN(Cc2ccc(Cl)cc2)CC1 [compound 100] | < 25 nM |
| CC[C@H]1CN(c2nc(N)c(C(=O)NC)nc2Cl)CCN1C1CCN(C(=O)c2ccc(C#N)cc2)CC1 [compound 340] | < 25 nM |
| CC[C@H]1CN(c2nc(N)c(C(=O)NCCNC(N)=O)nc2Cl)CCN1C1CCN(C(CO)c2ccc(C#N)cc2)CC1 (some centres unmarked) [compound 232] | 25 to 100 nM |
| CC[C@H]1CN(c2nc(N)c(C(=O)NCCO)nc2Cl)CCN1C1CCN(C(=O)c2ccc(Cl)cc2CCNS(C)(=O)=O)CC1 [compound 347] | 25 to 100 nM |
| CC[C@H]1CN(c2cnc(C(N)=O)cn2)CCN1C1CCN([C@@H](CO)c2ccc(Cl)cc2)CC1 [compound 438] | < 25 nM |
| CC[C@H]1CN(c2nc(N)c(C(=O)NCc3nccs3)nc2Cl)CCN1C1CCN(Cc2ccc(C#N)cc2)CC1 [compound 208] | > 100 nM |
| CC[C@H]1CN(c2nc(N)c(C(N)=O)nc2Cl)CCN1C1CCN(Cc2ccc(Cl)cc2CCNC(C)=O)CC1 [compound 41] | 25 to 100 nM |
| CC[C@H]1CN(c2ncc(C(N)=O)nc2C)[C@H](C)CN1C1CCN(C(=O)c2ccc(Cl)cc2)CC1 [compound 417] | < 25 nM |
| CC[C@H]1CN(c2ncc(C(=O)NC3CC3)nc2C)CCN1C1CCN([C@H](CO)c2ccc(Cl)cc2)CC1 [compound 470] | < 25 nM |
| CC[C@H]1CN(c2nc(N)c(C(N)=O)nc2Cl)CCN1C1CCN(Cc2ccc(Cl)cc2CCN)CC1 [compound 6] | < 25 nM |
| CC[C@H]1CN(c2nc(N)c(C(=O)NC)nc2Cl)CCN1C1CCN(CCCNC(=O)c2ccc(Cl)cc2)CC1 [compound 79] | > 100 nM |

Same assay, conditions: human; read-out: human IC50

| Compound | IC50 |
| --- | --- |
| CC[C@H]1CN(c2ncc(C(N)=O)nc2C(F)(F)F)CCN1C1CCN(C(=O)c2ccc(Cl)cc2)CC1 [Formula 13] | < 1 nM |

— patent US7868005B2, “Pyrazinyl substituted piperazine-piperidines with CXCR3 antagonist activity” (Schering Corporation, priority 2005, dated 2011)
